Test results reported in ChEMBL document CHEMBL4680185, “Discovery of novel cyclin-dependent kinase (CDK) and histone deacetylase (HDAC) dual inhibitors with potent in vitro and in vivo anticancer activity” (Eur J Med Chem, 2020).
pIC50: −log10 of the molar value. Activity calls are given as the source filed them. The rule behind the calls is not given here.

Key:
A-375 [1] = test: cells; format: functional, cell-based; conditions: Homo sapiens, A-375, 72 h
Description: Antiproliferative activity against human A375 cells assessed as inhibition of cell growth incubated for 72 hrs by CCK-8 assay

HeLa = test: cells; format: functional, cell-based; conditions: Homo sapiens, 72 h
Description: Antiproliferative activity against human Hela cells assessed as inhibition of cell growth incubated for 72 hrs by CCK-8 assay

A-375 [2] = test: Antimigratory activity against human A375 cells assessed as inhibition of cell migration at 0.25 uM measured after 48 hrs by cell scratch assay; format: functional, cell-based
HCT-116 [3] = test: cells; format: functional, cell-based; conditions: Homo sapiens, HCT-116, 72 h
Description: Antiproliferative activity against human HCT116 cells assessed as inhibition of cell growth incubated for 72 hrs by CCK-8 assay

[4] = Cytotoxicity against mouse NIH/3T3 cells incubated for 72 hrs by CCK-8 assay; format: cell-based; conditions: NIH3T3, 72 h
HCT-116 [5] = test: Induction of apoptosis in human HCT116 cells assessed as number of apoptotic cells at 2 uM incubated for 48 hrs by annexin V-FITC/PI based flow cytometric analysis relative to control; format: functional
SMMC-7721 = test: cells; format: functional, cell-based; conditions: Homo sapiens, SMMC-7721, 72 h
Description: Antiproliferative activity against human SMMC7721 cells assessed as inhibition of cell growth incubated for 72 hrs by CCK-8 assay

NCI-H460 [6] = test: cells; format: functional, cell-based; conditions: Homo sapiens, NCI-H460, 72 h
Description: Antiproliferative activity against human H460 cells assessed as inhibition of cell growth incubated for 72 hrs by CCK-8 assay

NCI-H460 [7] = test: Antimigratory activity against human H460 cells assessed as inhibition of cell migration at 0.5 uM measured after 48 hrs by cell scratch assay; format: functional, cell-based
NCI-H460 [8] = test: cells; format: functional; conditions: Homo sapiens, time 72 hrs, read-out: GI
A-375 [9] = test: Induction of apoptosis in human A375 cells assessed as number of apoptotic cells at 2 uM incubated for 48 hrs by annexin V-FITC/PI based flow cytometric analysis relative to control; format: functional
HCT-116 [10] = test: cells; format: functional; conditions: Homo sapiens, time 72 hrs, read-out: GI
NCI-H460 [11] = test: cells; format: functional; conditions: Homo sapiens, time 72 hrs, read-out: GI; remark: listed apart in the source
HCT-116 [12] = test: cells; format: functional; conditions: Homo sapiens, time 72 hrs, read-out: GI; remark: listed apart in the source
Histone deacetylase 2 = Histone deacetylase 2 (Homo sapiens, UniProt Q92769); test: Inhibition of human recombinant HDAC2 preincubated for 10 mins followed by addition of substrate fluor De Lys green measured after 30 mins by fluorescent plate reader analysis
Histone deacetylase 2, sequence (Q92769 whole entry): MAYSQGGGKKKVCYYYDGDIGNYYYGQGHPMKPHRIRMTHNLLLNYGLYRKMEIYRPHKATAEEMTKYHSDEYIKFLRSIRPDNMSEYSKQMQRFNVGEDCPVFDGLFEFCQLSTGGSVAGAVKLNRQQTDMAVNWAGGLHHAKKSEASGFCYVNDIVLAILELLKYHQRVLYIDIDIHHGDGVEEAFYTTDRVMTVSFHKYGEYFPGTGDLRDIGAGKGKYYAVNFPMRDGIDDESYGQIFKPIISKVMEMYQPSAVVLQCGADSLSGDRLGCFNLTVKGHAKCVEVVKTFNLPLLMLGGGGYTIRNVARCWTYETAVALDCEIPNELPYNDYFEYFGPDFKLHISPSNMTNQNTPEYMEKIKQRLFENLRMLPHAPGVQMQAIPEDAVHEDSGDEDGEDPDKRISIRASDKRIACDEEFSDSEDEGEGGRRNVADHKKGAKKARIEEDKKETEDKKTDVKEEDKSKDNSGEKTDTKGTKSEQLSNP

SMILES	pIC50 (A-375 [1])	pIC50 (HeLa)	inhibition (A-375 [2])	pIC50 (HCT-116 [3])	pIC50 [4]	Activity (HCT-116 [5])	pIC50 (SMMC-7721)	pIC50 (NCI-H460 [6])	inhibition (NCI-H460 [7])	inhibition of growth at 2 µM (NCI-H460 [8])	Activity (A-375 [9])	inhibition of growth at 8 µM (HCT-116 [10])	inhibition of growth at 8 µM (NCI-H460 [11])	inhibition of growth at 2 µM (HCT-116 [12])	pIC50 (Histone deacetylase 2)
Nc1ccc(F)cc1NC(=O)c1ccc(CNC(=O)/C=C/c2cccnc2)cc1	5.39	4.83	Active	5.56	5.61	44.3%	4.59	< 4.49	Active	1.73%	62.6%	72.2%	38.2%	64.4%	7.64
O=C(NO)c1ccc(CNC(=O)c2n[nH]cc2NC(=O)c2c(F)cccc2F)cc1	–	–	–	–	–	–	–	–	–	0.46%	–	64.5%	7.33%	25%	–
Nc1ccccc1NC(=O)c1ccc(CNC(=O)c2n[nH]cc2NC(=O)c2ccccc2F)cc1	5.64	5.46	–	5.32	–	–	5.16	5.00	–	7.25%	–	81.2%	57.6%	39.8%	–
Nc1ccccc1NC(=O)Cc1ccc(NC(=O)c2n[nH]cc2NC(=O)c2ccccc2F)cc1	–	–	–	–	–	–	–	–	–	6.06%	–	20.4%	23.4%	16.5%	–
O=C(NO)c1ccc(CNC(=O)c2n[nH]cc2NC(=O)c2ccccc2F)cc1	5.52	5.18	–	5.66	–	–	4.78	4.62	–	23.5%	–	77%	57.1%	51%	–
O=C(CCCCNC(=O)c1n[nH]cc1NC(=O)c1c(F)cccc1F)NO	–	–	–	–	–	–	–	–	–	0.4%	–	14.9%	15.8%	5.76%	–
Nc1ccccc1NC(=O)c1ccc(CNC(=O)c2n[nH]cc2NC(=O)c2ccccc2)cc1	5.80	5.39	–	5.78	–	–	5.18	5.20	–	11.8%	–	88.6%	61.7%	62.9%	–
Nc1ccccc1NC(=O)Cc1ccc(NC(=O)c2n[nH]cc2NC(=O)c2ccccc2)cc1	–	–	–	–	–	–	–	–	–	0.37%	–	69.2%	8.93%	60%	–
O=C(Cc1ccc(NC(=O)c2n[nH]cc2NC(=O)c2ccccc2F)cc1)NO	–	–	–	–	–	–	–	–	–	9.5%	–	14.3%	21.4%	1.04%	–
O=C(CCCCCCNC(=O)c1n[nH]cc1NC(=O)c1c(F)cccc1Cl)NO	–	–	–	–	–	–	–	–	–	0.88%	–	15.7%	28.7%	10%	–
Nc1ccccc1NC(=O)Cc1ccc(NC(=O)c2n[nH]cc2NC(=O)c2c(F)cccc2F)cc1	5.53	5.05	–	5.46	–	–	4.78	5.30	–	3.52%	–	81.6%	73.8%	76.8%	–
O=C(Cc1ccc(NC(=O)c2n[nH]cc2NC(=O)c2c(F)cccc2F)cc1)NO	–	–	–	–	–	–	–	–	–	0.04%	–	25.6%	30.2%	29.9%	–
COc1ccccc1C(=O)Nc1c[nH]nc1C(=O)NCc1ccc(C(=O)Nc2ccccc2N)cc1	5.58	5.09	–	5.43	–	–	5.08	5.13	–	5.73%	–	75.4%	45.5%	23.5%	–
COc1ccccc1C(=O)Nc1c[nH]nc1C(=O)NCc1ccc(C(=O)NO)cc1	–	–	–	–	–	–	–	–	–	16%	–	68.8%	45.6%	43.8%	–
Nc1ccccc1NC(=O)Cc1ccc(NC(=O)c2n[nH]cc2NC(=O)c2ccccc2Cl)cc1	–	–	–	–	–	–	–	–	–	3.08%	–	52%	27.8%	29.2%	–
O=C(NO)c1ccc(CNC(=O)c2n[nH]cc2NC(=O)c2c(Cl)cccc2Cl)cc1	5.30	5.32	–	6.30	–	–	4.84	4.98	–	45.4%	–	81.9%	57.4%	68.7%	–
O=C(NO)c1ccc(CNC(=O)c2n[nH]cc2NC(=O)c2ccccc2Cl)cc1	5.19	4.79	–	5.62	–	–	4.66	5.21	–	26.6%	–	71.6%	29.8%	53.8%	–

SMILES	pIC50 (A-375 [1])	pIC50 (HeLa)	inhibition (A-375 [2])	pIC50 (HCT-116 [3])	pIC50 [4]	Activity (HCT-116 [5])	pIC50 (SMMC-7721)	pIC50 (NCI-H460 [6])	inhibition (NCI-H460 [7])	inhibition of growth at 2 µM (NCI-H460 [8])	Activity (A-375 [9])	inhibition of growth at 8 µM (HCT-116 [10])	inhibition of growth at 8 µM (NCI-H460 [11])	inhibition of growth at 2 µM (HCT-116 [12])	pIC50 (Histone deacetylase 2)
O=C(NO)c1ccc(CNC(=O)c2n[nH]cc2NC(=O)c2ccccc2)cc1	–	–	–	–	–	–	–	–	–	12%	–	61.7%	31.6%	29.4%	–
COc1ccccc1C(=O)Nc1c[nH]nc1C(=O)Nc1ccc(CC(=O)NO)cc1	–	–	–	–	–	–	–	–	–	1.58%	–	24.5%	24.2%	9.38%	–
O=C(CCCCCNC(=O)c1n[nH]cc1NC(=O)c1c(Cl)cccc1Cl)NO	–	–	–	–	–	–	–	–	–	15.1%	–	4.66%	21.3%	3.02%	–
Nc1ccccc1NC(=O)c1ccc(CNC(=O)c2n[nH]cc2NC(=O)c2c(F)cccc2F)cc1	5.77	5.35	–	5.95	–	–	4.82	5.11	–	13.9%	–	79.1%	80.5%	73.1%	–
Nc1ccccc1NC(=O)c1ccc(CNC(=O)c2n[nH]cc2NC(=O)c2c(F)cccc2Cl)cc1	5.92	5.49	–	6.15	–	–	4.79	5.44	–	50.1%	–	83.8%	75%	78.7%	–
O=C(Cc1ccc(NC(=O)c2n[nH]cc2NC(=O)c2ccccc2Cl)cc1)NO	–	–	–	–	–	–	–	–	–	9.04%	–	4.52%	26.6%	0.84%	–
Nc1ccccc1NC(=O)Cc1ccc(NC(=O)c2n[nH]cc2NC(=O)c2c(F)cccc2Cl)cc1	5.54	5.37	–	5.59	–	–	4.84	5.27	–	16.4%	–	74.3%	75.1%	60.4%	–
O=C(CCCCCNC(=O)c1n[nH]cc1NC(=O)c1c(F)cccc1F)NO	–	–	–	–	–	–	–	–	–	22.9%	–	59.4%	28.8%	4.87%	–
O=C(NO)c1ccc(CNC(=O)c2n[nH]cc2NC(=O)c2c(F)cccc2Cl)cc1	–	–	–	–	–	–	–	–	–	–	–	59.3%	27.7%	–	–
O=C(CCCNC(=O)c1n[nH]cc1NC(=O)c1c(F)cccc1F)NO	–	–	–	–	–	–	–	–	–	13%	–	6.54%	25.3%	0.91%	–
COc1ccccc1C(=O)Nc1c[nH]nc1C(=O)Nc1ccc(CC(=O)Nc2ccccc2N)cc1	–	–	–	–	–	–	–	–	–	3.12%	–	30.5%	26.8%	13.6%	–
O=C(Cc1ccc(NC(=O)c2n[nH]cc2NC(=O)c2ccccc2)cc1)NO	–	–	–	–	–	–	–	–	–	11.8%	–	14.2%	23.1%	9.56%	–
O=C(Cc1ccc(NC(=O)c2n[nH]cc2NC(=O)c2c(F)cccc2Cl)cc1)NO	–	–	–	–	–	–	–	–	–	12.5%	–	44.9%	37%	21.7%	–
O=C(CCCCCCNC(=O)c1n[nH]cc1NC(=O)c1c(F)cccc1F)NO	–	–	–	–	–	–	–	–	–	3.57%	–	13.8%	6.84%	12.1%	–
Nc1ccccc1NC(=O)c1ccc(CNC(=O)c2n[nH]cc2NC(=O)c2ccccc2Cl)cc1	5.68	4.98	–	6.05	–	–	4.89	5.20	–	5.54%	–	84.4%	17.4%	63.7%	–
O=C(CCCCCCNC(=O)c1n[nH]cc1NC(=O)c1c(Cl)cccc1Cl)NO	–	–	–	–	–	–	–	–	–	17%	–	20.1%	17.9%	1.07%	–
O=C(Cc1ccc(NC(=O)c2n[nH]cc2NC(=O)c2c(Cl)cccc2Cl)cc1)NO	5.34	5.15	–	5.62	–	–	4.91	5.16	–	10.5%	–	75.8%	75.1%	62.1%	–
